Laboratory results as given in ChEMBL document CHEMBL2331144, “Synthesis and anticancer activity of analogues of phenstatin, with a phenothiazine A-ring, as a new class of microtubule-targeting agents” (Bioorg Med Chem Lett, 2013).

Tests used:
MDA-MB-468 = assay: Growth inhibition of human MDA-MB-468 cells at 10 uM after 48 hrs by sulforhodamine B assay; format: functional; settings: MDA-MB-468, 48 h, read-out: GI
T47D = assay: Growth inhibition of human T47D cells at 10 uM after 48 hrs by sulforhodamine B assay; format: functional; settings: read-out: GI
MDA-MB-231 = assay: Growth inhibition of human MDA-MB-231 cells at 10 uM after 48 hrs by sulforhodamine B assay; format: functional; settings: MDA-MB-231, 48 h, read-out: GI
MCF7 = assay: Growth inhibition of human MCF7 cells at 10 uM after 48 hrs by sulforhodamine B assay; format: functional; settings: MCF7, 48 h, read-out: GI
SNB-75 = assay: Growth inhibition of human SNB75 cells at 10 uM after 48 hrs by sulforhodamine B assay; format: functional; settings: SNB-75, 48 h, read-out: GI
SF-295 = assay: Growth inhibition of human SF295 cells at 10 uM after 48 hrs by sulforhodamine B assay; format: functional; settings: SF-295, 48 h, read-out: GI
PC-3 = assay: Growth inhibition of human PC3 cells at 10 uM after 48 hrs by sulforhodamine B assay; format: functional; settings: PC-3, 48 h, read-out: GI
786-0 = assay: Growth inhibition of human 786-0 cells at 10 uM after 48 hrs by sulforhodamine B assay; format: functional; settings: 786-0, 48 h, read-out: GI
UO-31 = assay: Growth inhibition of human UO31 cells at 10 uM after 48 hrs by sulforhodamine B assay; format: functional; settings: UO-31, 48 h, read-out: GI
CAKI-1 = assay: Growth inhibition of human CAKI-1 cells at 10 uM after 48 hrs by sulforhodamine B assay; format: functional; settings: CAKI-1, 48 h, read-out: GI
RXF 393 = assay: Growth inhibition of human RXF393 cells at 10 uM after 48 hrs by sulforhodamine B assay; format: functional; settings: RXF 393, 48 h, read-out: GI
A498 = assay: Growth inhibition of human A498 cells at 10 uM after 48 hrs by sulforhodamine B assay; format: functional; settings: A498, 48 h, read-out: GI
[1] = Growth inhibition of human NCI-ADR-RES cells at 10 uM after 48 hrs by sulforhodamine B assay; format: functional; settings: read-out: GI
OVCAR-4 = assay: Growth inhibition of human OVCAR4 cells at 10 uM after 48 hrs by sulforhodamine B assay; format: functional; settings: OVCAR-4, 48 h, read-out: GI
SK-MEL-5 = assay: Growth inhibition of human SK-MEL-5 cells at 10 uM after 48 hrs by sulforhodamine B assay; format: functional; settings: SK-MEL-5, 48 h, read-out: GI
Malme-3M = assay: Growth inhibition of human MALME-3M cells at 10 uM after 48 hrs by sulforhodamine B assay; format: functional; settings: read-out: GI
LOX IMVI = assay: Growth inhibition of human LOXIMVI cells at 10 uM after 48 hrs by sulforhodamine B assay; format: functional; settings: read-out: GI
UACC-62 = assay: Growth inhibition of human UACC62 cells at 10 uM after 48 hrs by sulforhodamine B assay; format: functional; settings: UACC-62, 48 h, read-out: GI
KM12 = assay: Growth inhibition of human KM12 cells at 10 uM after 48 hrs by sulforhodamine B assay; format: functional; settings: KM12, 48 h, read-out: GI
MDA-MB-435 = assay: Growth inhibition of human MDA-MB-435 cells at 10 uM after 48 hrs by sulforhodamine B assay; format: functional; settings: MDA-MB-435, 48 h, read-out: GI
HCT-15 = assay: Growth inhibition of human HCT15 cells at 10 uM after 48 hrs by sulforhodamine B assay; format: functional; settings: HCT-15, 48 h, read-out: GI
HCT-116 = assay: Growth inhibition of human HCT116 cells at 10 uM after 48 hrs by sulforhodamine B assay; format: functional; settings: HCT-116, 48 h, read-out: GI
COLO 205 = assay: Growth inhibition of human COLO205 cells at 10 uM after 48 hrs by sulforhodamine B assay; format: functional; settings: COLO 205, 48 h, read-out: GI
NCI-H522 = assay: Growth inhibition of human NCI-H522 cells at 10 uM after 48 hrs by sulforhodamine B assay; format: functional; settings: NCI-H522, 48 h, read-out: GI
HOP-92 = assay: Growth inhibition of human HOP92 cells at 10 uM after 48 hrs by sulforhodamine B assay; format: functional; settings: HOP-92, 48 h, read-out: GI
SR = assay: Growth inhibition of human SR cells at 10 uM after 48 hrs by sulforhodamine B assay; format: functional; settings: read-out: GI
HOP-62 = assay: Growth inhibition of human HOP62 cells at 10 uM after 48 hrs by sulforhodamine B assay; format: functional; settings: HOP-62, 48 h, read-out: GI
RPMI-8226 = assay: Growth inhibition of human RPMI8226 cells at 10 uM after 48 hrs by sulforhodamine B assay; format: functional; settings: RPMI-8226, 48 h, read-out: GI
MOLT-4 = assay: Growth inhibition of human MOLT4 cells at 10 uM after 48 hrs by sulforhodamine B assay; format: functional; settings: MOLT-4, 48 h, read-out: GI
K562 = assay: Growth inhibition of human K562 cells at 10 uM after 48 hrs by sulforhodamine B assay; format: functional; settings: K562, 48 h, read-out: GI
HL-60(TB) = assay: Growth inhibition of human HL-60(TB) cells at 10 uM after 48 hrs by sulforhodamine B assay; format: functional; settings: HL-60, 48 h, read-out: GI
CCRF-CEM = assay: Growth inhibition of human CCRF-CEM cells at 10 uM after 48 hrs by sulforhodamine B assay; format: functional; settings: read-out: GI
Ovis aries = species on record: Ovis aries; assay: Inhibition of sheep brain tubulin polymerization at 100 uM using DAPI by fluorimetry

SMILES | inhibition of growth at 10 µM (MDA-MB-468) | inhibition of growth at 10 µM (T47D) | inhibition of growth at 10 µM (MDA-MB-231) | inhibition of growth at 10 µM (MCF7) | inhibition of growth at 10 µM (SNB-75) | inhibition of growth at 10 µM (SF-295) | inhibition of growth at 10 µM (PC-3) | inhibition of growth at 10 µM (786-0) | inhibition of growth at 10 µM (UO-31) | inhibition of growth at 10 µM (CAKI-1) | inhibition of growth at 10 µM (RXF 393) | inhibition of growth at 10 µM (A498) | inhibition of growth at 10 µM [1] | inhibition of growth at 10 µM (OVCAR-4) | inhibition of growth at 10 µM (SK-MEL-5) | inhibition of growth at 10 µM (Malme-3M) | inhibition of growth at 10 µM (LOX IMVI) | inhibition of growth at 10 µM (UACC-62) | inhibition of growth at 10 µM (KM12) | inhibition of growth at 10 µM (MDA-MB-435) | also measured
CC(=O)c1cn(C(=O)N2c3ccccc3Sc3ccccc32)c2ccccc12 | 14% | 25.1% | 0% | 0% | 6% | 0.9% | 18.3% | 6.7% | 24.2% | 14% | 7% | 1.3% | 4.9% | 0% | 8.5% | 7.6% | 9% | 16% | 6.6% | 3% | inhibition of growth at 10 µM (HCT-15): 8.4%; inhibition of growth at 10 µM (HCT-116): 6.8%; inhibition of growth at 10 µM (COLO 205): 1.6%; inhibition of growth at 10 µM (NCI-H522): 17%; inhibition of growth at 10 µM (HOP-92): 24.9%; inhibition of growth at 10 µM (SR): 31.4%; inhibition of growth at 10 µM (HOP-62): 13.3%; inhibition of growth at 10 µM (RPMI-8226): 35.5%; inhibition of growth at 10 µM (MOLT-4): 16.9%; inhibition of growth at 10 µM (K562): 26.2%; inhibition of growth at 10 µM (HL-60(TB)): 16.5%; inhibition of growth at 10 µM (CCRF-CEM): 7.2%
O=C(c1cc2cc(F)ccc2[nH]1)N1c2ccccc2Sc2ccccc21 | 11.6% | 10.1% | 23.8% | 3.4% | 20.6% | 5.7% | 44.7% | 11.2% | 21.6% | 17.3% | 7.7% | 19.1% | 15.6% | 14.8% | 24.5% | 3.9% | 33.6% | 25.6% | 1.7% | 3.2% | inhibition (Ovis aries): 32%; inhibition of growth at 10 µM (HCT-15): 45.8%; inhibition of growth at 10 µM (HCT-116): 46.1%; inhibition of growth at 10 µM (COLO 205): 0%; inhibition of growth at 10 µM (NCI-H522): 0%; inhibition of growth at 10 µM (HOP-92): 4.2%; inhibition of growth at 10 µM (SR): 56.9%; inhibition of growth at 10 µM (HOP-62): 20.6%; inhibition of growth at 10 µM (RPMI-8226): 5.8%; inhibition of growth at 10 µM (MOLT-4): 31.8%; inhibition of growth at 10 µM (K562): 34.6%; inhibition of growth at 10 µM (HL-60(TB)): 1.3%; inhibition of growth at 10 µM (CCRF-CEM): 10.1%
